A word on the Ki: it is a dissociation constant, usually derived from enzyme kinetics or from competition with a known ligand.

The values below come from patent publication US8921376B2, “Pyrrolopyridines useful as inhibitors of protein kinase” (Vertex Pharmaceuticals Incorporated, priority 2005, dated 2014).

Where only a bound is given, the exact number is not on record here.

What all share (format): biochemical
Conditions in all cases: Table 6; enzyme inhibition data (Ki)

Test [1] deals with JAK2 (Homo sapiens, UniProt O60674). Description: JAK2 inhibition assay (as Example 3 with JAK-2 enzyme). The method, boiled down: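 In HEPES pH 7.4 buffer with 10 mM MgCl2, 1 mM DTT, 25 mM NaCl and 0.01% BSA, JAK2 enzyme phosphorylated poly(Glu)4Tyr (final 15 μM) using 33P-ATP (final 12 μM) for 20 min at room temperature (25 °C). Reactions stopped with TCA; incorporated 33P measured by scintillation after filtration.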
Sequence of JAK2 (O60674 whole entry): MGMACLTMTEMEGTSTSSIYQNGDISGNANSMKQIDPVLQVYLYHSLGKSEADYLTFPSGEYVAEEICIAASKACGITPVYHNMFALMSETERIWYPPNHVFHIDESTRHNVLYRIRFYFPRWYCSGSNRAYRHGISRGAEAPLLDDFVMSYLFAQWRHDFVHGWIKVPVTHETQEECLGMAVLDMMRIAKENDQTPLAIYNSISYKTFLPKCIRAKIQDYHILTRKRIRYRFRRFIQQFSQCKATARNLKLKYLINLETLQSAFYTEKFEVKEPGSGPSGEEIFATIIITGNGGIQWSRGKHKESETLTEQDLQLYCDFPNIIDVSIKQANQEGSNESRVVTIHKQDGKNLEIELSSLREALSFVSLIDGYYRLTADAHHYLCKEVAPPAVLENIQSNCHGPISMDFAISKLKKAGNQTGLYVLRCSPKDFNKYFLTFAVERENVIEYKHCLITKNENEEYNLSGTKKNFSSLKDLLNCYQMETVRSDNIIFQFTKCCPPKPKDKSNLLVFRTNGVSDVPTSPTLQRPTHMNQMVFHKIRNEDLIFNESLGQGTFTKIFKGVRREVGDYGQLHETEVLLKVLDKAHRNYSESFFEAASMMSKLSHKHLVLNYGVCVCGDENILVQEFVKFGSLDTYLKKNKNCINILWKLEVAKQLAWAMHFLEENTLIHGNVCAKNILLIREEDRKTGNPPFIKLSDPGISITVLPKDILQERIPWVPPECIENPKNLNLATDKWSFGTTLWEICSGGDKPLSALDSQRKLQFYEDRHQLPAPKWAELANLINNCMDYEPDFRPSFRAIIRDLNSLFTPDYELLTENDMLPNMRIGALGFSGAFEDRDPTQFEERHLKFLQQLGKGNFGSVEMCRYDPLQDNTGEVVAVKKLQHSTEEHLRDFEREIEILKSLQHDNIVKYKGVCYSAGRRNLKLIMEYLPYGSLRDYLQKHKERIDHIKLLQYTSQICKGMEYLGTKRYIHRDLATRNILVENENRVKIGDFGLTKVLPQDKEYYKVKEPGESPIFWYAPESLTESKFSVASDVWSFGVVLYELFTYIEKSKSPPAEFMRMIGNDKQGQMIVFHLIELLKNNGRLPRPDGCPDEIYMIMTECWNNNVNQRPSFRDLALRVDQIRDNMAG

For test [2], the target named is T1, JAK3 (Homo sapiens, UniProt P52333).
T1 sequence (P52333 1-1124): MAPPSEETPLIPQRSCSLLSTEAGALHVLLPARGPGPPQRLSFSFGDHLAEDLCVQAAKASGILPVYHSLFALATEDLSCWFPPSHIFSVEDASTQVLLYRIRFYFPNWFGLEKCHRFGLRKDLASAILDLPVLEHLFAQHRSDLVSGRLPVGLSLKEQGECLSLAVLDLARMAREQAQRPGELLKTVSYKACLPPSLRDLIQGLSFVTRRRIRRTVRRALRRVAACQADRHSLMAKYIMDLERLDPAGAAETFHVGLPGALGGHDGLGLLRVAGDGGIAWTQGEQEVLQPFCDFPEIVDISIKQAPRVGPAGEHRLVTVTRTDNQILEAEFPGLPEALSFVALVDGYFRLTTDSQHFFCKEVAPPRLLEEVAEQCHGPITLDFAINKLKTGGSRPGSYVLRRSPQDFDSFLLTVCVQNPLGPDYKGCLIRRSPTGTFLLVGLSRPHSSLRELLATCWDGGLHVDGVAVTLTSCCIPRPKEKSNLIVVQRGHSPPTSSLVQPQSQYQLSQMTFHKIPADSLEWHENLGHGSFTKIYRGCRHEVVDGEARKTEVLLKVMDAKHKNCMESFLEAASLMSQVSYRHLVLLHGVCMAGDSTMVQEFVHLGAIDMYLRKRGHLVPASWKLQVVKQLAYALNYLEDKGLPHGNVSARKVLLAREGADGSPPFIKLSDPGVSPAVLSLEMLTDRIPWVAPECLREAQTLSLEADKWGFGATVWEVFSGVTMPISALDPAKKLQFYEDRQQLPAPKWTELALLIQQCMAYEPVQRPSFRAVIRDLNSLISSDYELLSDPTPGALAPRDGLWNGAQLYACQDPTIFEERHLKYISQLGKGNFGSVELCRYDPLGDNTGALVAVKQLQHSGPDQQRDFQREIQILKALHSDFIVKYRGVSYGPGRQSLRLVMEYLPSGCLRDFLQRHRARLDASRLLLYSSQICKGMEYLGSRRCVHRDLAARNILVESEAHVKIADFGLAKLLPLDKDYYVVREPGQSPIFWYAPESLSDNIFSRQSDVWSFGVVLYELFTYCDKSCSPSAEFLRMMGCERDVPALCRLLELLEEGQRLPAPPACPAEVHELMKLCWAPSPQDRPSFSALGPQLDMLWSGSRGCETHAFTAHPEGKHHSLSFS
Description: JAK3 inhibition assay (33P incorporation into poly(Glu)4Tyr). In short, it runs like this: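 After TCA quench and filter harvest, scintillation counting of 33P measured phosphorylation of poly(Glu)4Tyr (1 μM) by 1 nM JAK3. The 20-min, 25° C. reaction contained 5 μM ATP (200 μCi/μmole) in pH 7.4 HEPES buffer with 10 mM MgCl2.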

Test [3] concerns the target ROCK I (Homo sapiens, UniProt Q13464). Description: ROCK-I inhibition assay (radioactive enzyme assay, MBP substrate). In short, it runs like this:
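Human ROCK at 5 nM phosphorylated 27 μM myelin basic protein with 13 μM [γ-33P]ATP (final) in HEPES pH 7.5, MgCl2, NaCl, DTT and 1.5% DMSO. Reactions ran 2 h at room temperature before TCA quench and filter-plate scintillation counting. After background subtraction, data were fit to give Ki(app).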

Sequence of ROCK I (Q13464 whole entry): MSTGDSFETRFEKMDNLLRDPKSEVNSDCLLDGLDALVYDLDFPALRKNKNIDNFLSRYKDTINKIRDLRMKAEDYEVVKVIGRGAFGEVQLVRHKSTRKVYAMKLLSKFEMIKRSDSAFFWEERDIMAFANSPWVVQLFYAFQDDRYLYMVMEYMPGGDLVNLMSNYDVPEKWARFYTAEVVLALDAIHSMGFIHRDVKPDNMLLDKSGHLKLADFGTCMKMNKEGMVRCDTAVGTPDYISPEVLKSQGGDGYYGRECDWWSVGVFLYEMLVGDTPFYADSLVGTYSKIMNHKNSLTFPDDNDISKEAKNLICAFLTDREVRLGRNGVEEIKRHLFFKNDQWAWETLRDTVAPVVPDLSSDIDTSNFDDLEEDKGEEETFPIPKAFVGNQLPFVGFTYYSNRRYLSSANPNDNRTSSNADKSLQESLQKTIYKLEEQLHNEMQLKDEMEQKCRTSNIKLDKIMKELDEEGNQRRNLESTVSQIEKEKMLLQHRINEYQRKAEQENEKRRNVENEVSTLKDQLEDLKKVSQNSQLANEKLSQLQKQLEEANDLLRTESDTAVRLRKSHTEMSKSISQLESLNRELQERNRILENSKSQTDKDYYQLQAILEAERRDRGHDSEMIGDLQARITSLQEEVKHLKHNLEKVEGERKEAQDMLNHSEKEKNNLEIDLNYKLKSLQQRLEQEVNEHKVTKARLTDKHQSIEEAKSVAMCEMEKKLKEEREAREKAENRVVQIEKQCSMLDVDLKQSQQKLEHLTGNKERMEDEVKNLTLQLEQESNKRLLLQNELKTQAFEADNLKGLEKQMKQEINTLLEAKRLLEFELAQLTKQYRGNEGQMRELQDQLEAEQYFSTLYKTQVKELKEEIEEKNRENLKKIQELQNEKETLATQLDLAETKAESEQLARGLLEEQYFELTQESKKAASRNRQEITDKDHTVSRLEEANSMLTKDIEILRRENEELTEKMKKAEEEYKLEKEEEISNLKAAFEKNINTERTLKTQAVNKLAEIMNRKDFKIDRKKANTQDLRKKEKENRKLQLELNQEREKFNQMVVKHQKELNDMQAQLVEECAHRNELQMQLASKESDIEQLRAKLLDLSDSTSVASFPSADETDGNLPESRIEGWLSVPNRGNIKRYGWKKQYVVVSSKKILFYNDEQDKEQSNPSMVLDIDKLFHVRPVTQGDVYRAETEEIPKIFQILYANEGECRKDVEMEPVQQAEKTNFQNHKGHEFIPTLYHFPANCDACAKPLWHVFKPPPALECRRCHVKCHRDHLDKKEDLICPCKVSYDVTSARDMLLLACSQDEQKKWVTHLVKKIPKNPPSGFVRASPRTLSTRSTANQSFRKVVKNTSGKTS

On to `Cc1ccc(F)c(-c2ccnc3[nH]ccc23)c1Cl` [compound 244], for which the Ki in test [1] was greater than 5000 nM; in test [2] it was 500 to 5000 nM; in test [3] it was 500 to 5000 nM.
As to `COc1cccc(Cl)c1-c1ccnc2[nH]ccc12` [compound 245], the Ki in test [1] was greater than 5000 nM; in test [2], greater than 5000 nM; in test [3], greater than 4000 nM.
Turning to `c1ccc2c(c1)Oc1c(cccc1-c1ccnc3[nH]ccc13)S2` [compound 246], the Ki in test [1] is greater than 5000 nM; in test [2], greater than 5000 nM; in test [3], greater than 4000 nM.
As for `CS(=O)(=O)Nc1ccccc1-c1ccnc2[nH]ccc12` [compound 247], the figures for the Ki in test [1], in test [2] and in test [3] were greater than 5000 nM, greater than 5000 nM and greater than 4000 nM, respectively.
On to `Oc1ccccc1-c1ccnc2[nH]ccc12` [compound 248], for which the Ki in test [1], in test [2] and in test [3] was 500 to 5000 nM each time.
Regarding `CCOc1cccc(-c2ccnc3[nH]ccc23)c1` [compound 249], the Ki in test [1], in test [2] and in test [3] was less than 500 nM each time.
On to `c1cc(-c2cn[nH]c2)c2cc[nH]c2n1` [compound 250], for which the Ki in test [1], in test [2] and in test [3] was less than 500 nM throughout.
With `O=C(NCC(F)(F)F)c1cccc(-c2ccnc3[nH]ccc23)c1` [compound 251], the Ki in test [1] was 500 to 5000 nM; in test [2], less than 500 nM; in test [3], less than 500 nM.
For the compound `O=C(NCCC(F)(F)F)c1cccc(-c2ccnc3[nH]ccc23)c1` [compound 252], the results for the Ki in test [1], in test [2] and in test [3] were 500 to 5000 nM, less than 500 nM and 500 to 5000 nM, respectively.
Regarding `O=C(NCC(F)(F)F)c1ccccc1-c1ccnc2[nH]ccc12` [compound 253], the values for the Ki in test [1], in test [2] and in test [3] were greater than 5000 nM, greater than 5000 nM and greater than 4000 nM, respectively.
For the compound `O=C(NCCC(F)(F)F)c1ccccc1-c1ccnc2[nH]ccc12` [compound 254], the Ki in test [1] was greater than 5000 nM; in test [2], greater than 5000 nM; in test [3], greater than 4000 nM.
`CCNC(=O)c1cccc(-c2ccnc3[nH]ccc23)c1` [compound 255]: the inhibition constant Ki in test [1], in test [2] and in test [3] was 500 to 5000 nM throughout.
As for `CCCNC(=O)c1cccc(-c2ccnc3[nH]ccc23)c1` [compound 256], the Ki in test [1] is greater than 5000 nM; in test [2], 500 to 5000 nM; in test [3], 500 to 5000 nM.
Turning to `CCNC(=O)c1ccccc1-c1ccnc2[nH]ccc12` [compound 257], the Ki in test [1] was greater than 5000 nM; in test [2] it was greater than 5000 nM; in test [3], greater than 4000 nM.
Consider `CCCNC(=O)c1ccccc1-c1ccnc2[nH]ccc12` [compound 258], for which the Ki in test [1] is greater than 5000 nM; in test [2], greater than 5000 nM; in test [3], greater than 4000 nM.
Regarding `O=C(NCC(F)(F)F)c1cc(-c2ccnc3[nH]ccc23)c[nH]1` [compound 259], the Ki in test [1], in test [2] and in test [3] was less than 500 nM throughout.
As to `O=C(NCC(F)(F)F)c1ccc(-c2ccnc3[nH]ccc23)s1` [compound 260], the Ki in test [1], in test [2] and in test [3] was less than 500 nM throughout.
Turning to `CCN(C)C(=O)c1cc(-c2ccnc3[nH]ccc23)c[nH]1` [compound 261], the Ki in test [1], in test [2] and in test [3] was less than 500 nM throughout.
For the compound `CCN(CC)C(=O)c1cc(-c2ccnc3[nH]ccc23)c[nH]1` [compound 262], the Ki in test [1], in test [2] and in test [3] was less than 500 nM throughout.
Turning to `O=C(NC1CCCC1)c1cc(-c2ccnc3[nH]ccc23)c[nH]1` [compound 263], the Ki in test [1], in test [2] and in test [3] was less than 500 nM throughout.
Consider `CC(C)NC(=O)c1cc(-c2ccnc3[nH]ccc23)c[nH]1` [compound 264], for which the Ki in test [1], in test [2] and in test [3] was less than 500 nM in each case.
With `CC(C)(C(=O)NCC(F)(F)F)c1cccc(-c2ccnc3[nH]ccc23)n1` [compound 265], the Ki in test [1], in test [2] and in test [3] was less than 500 nM in each case.
On to `O=C(Cc1nc(-c2ccnc3[nH]ccc23)ncc1F)NCC(F)(F)F` [compound 266], for which the results for the Ki in test [1], in test [2] and in test [3] were less than 500 nM, 500 to 5000 nM and 500 to 5000 nM, respectively.
As for `CCCNC(=O)c1ccc(-c2ccnc3[nH]ccc23)cc1` [compound 267], the Ki in test [1], in test [2] and in test [3] was less than 500 nM each time.
As to `O=C(NCCC(F)(F)F)c1ccc(-c2ccnc3[nH]ccc23)cc1` [compound 268], the Ki in test [1], in test [2] and in test [3] was less than 500 nM each time.
Consider `O=C(NCC(F)(F)F)c1ccc(-c2ccnc3[nH]ccc23)cc1` [compound 269], for which the inhibition constant Ki in test [1], in test [2] and in test [3] was less than 500 nM throughout.
Turning to `O=C(NC1CC1)c1ccc(-c2ccnc3[nH]ccc23)cc1` [compound 270], the Ki in test [1] is less than 500 nM; in test [2], 500 to 5000 nM; in test [3], 500 to 5000 nM.
`O=C(Nc1ccccc1)c1ccc(-c2ccnc3[nH]ccc23)cc1` [compound 271]: the Ki in test [1], in test [2] and in test [3] was less than 500 nM each time.
As to `CNC(=O)c1ccc(-c2ccnc3[nH]ccc23)cc1` [compound 272], the inhibition constant (Ki) in test [1], in test [2] and in test [3] was less than 500 nM in each case.
As for `CCNC(=O)c1ccc(-c2ccnc3[nH]ccc23)cc1` [compound 273], the Ki in test [1] was less than 500 nM; in test [2] it was 500 to 5000 nM; in test [3] it was 500 to 5000 nM.
For `O=C(O)c1cc(-c2ccnc3[nH]ccc23)c[nH]1` [compound 274], the Ki in test [1] was 500 to 5000 nM; in test [2], less than 500 nM; in test [3], greater than 4000 nM.
In the case of `O=C(Nc1ccccc1)c1cc(-c2ccnc3[nH]ccc23)c[nH]1` [compound 275], the inhibitory constant (Ki) in test [1], in test [2] and in test [3] was less than 500 nM in each case.
Turning to `O=C(NCC(F)(F)F)c1cc(-c2c(Cl)cnc3[nH]ccc23)c[nH]1` [compound 276], the Ki in test [1] is less than 500 nM; in test [2] it was less than 500 nM; in test [3], 500 to 5000 nM.
Take `CNC(=O)c1cc(-c2c(Cl)cnc3[nH]ccc23)c[nH]1` [compound 277]: the values for the Ki in test [1], in test [2] and in test [3] were less than 500 nM, less than 500 nM and 500 to 5000 nM, respectively.
As for `CCNC(=O)c1cc(-c2c(Cl)cnc3[nH]ccc23)c[nH]1` [compound 278], the figures for the Ki in test [1], in test [2] and in test [3] were less than 500 nM, less than 500 nM and greater than 4000 nM, respectively.
For `CCCNC(=O)c1cc(-c2c(Cl)cnc3[nH]ccc23)c[nH]1` [compound 279], the inhibitory constant (Ki) in test [1] is less than 500 nM; in test [2] it was less than 500 nM; in test [3], 500 to 5000 nM.
Take `CC(C)NC(=O)c1cc(-c2c(Cl)cnc3[nH]ccc23)c[nH]1` [compound 280]: the Ki was less than 500 nM in test [1], less than 500 nM in test [2] and 500 to 5000 nM in test [3].
As for `O=C(NC1CC1)c1cc(-c2c(Cl)cnc3[nH]ccc23)c[nH]1` [compound 281], the Ki in test [1] is less than 500 nM; in test [2] it was less than 500 nM; in test [3], 500 to 5000 nM.
`CCNC(=O)c1cc(-c2ccnc3[nH]ccc23)c[nH]1` [compound 282]: the Ki in test [1], in test [2] and in test [3] was less than 500 nM throughout.
Take `CCCNC(=O)c1cc(-c2ccnc3[nH]ccc23)c[nH]1` [compound 283]: the Ki in test [1], in test [2] and in test [3] was less than 500 nM in each case.
